Measurements: the supplement of paper PMC10307832

What was measured:
Test in all cases: relative viability (nuclei count vs DMSO), 5 days (fraction); higher = more cells survive
Staurosporine + AZD7762 = compound: CN[C@@H]1C[C@H]2O[C@@](C)([C@@H]1OC)n1c3ccccc3c3c4c(c5c6ccccc6n2c5c31)C(=O)NC4 [Staurosporine] + NC(=O)Nc1cc(-c2cccc(F)c2)sc1C(=O)N[C@H]1CCCNC1 [AZD7762] (partner 0.2 µM)
In short: (§1)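 Lung cancer cell lines in 1536-well plates got either a single drug or a fixed anchor-drug dose together with five library-drug doses (not always all listed) in √10 steps, by pin tool, on the day after seeding. Nuclei were counted after 5 days, and relative viability is the treated-to-vehicle ratio of nuclei counts. Values are medians of duplicate plates.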

[1] = compound: CN[C@@H]1C[C@H]2O[C@@](C)([C@@H]1OC)n1c3ccccc3c3c4c(c5c6ccccc6n2c5c31)C(=O)NC4 [Staurosporine] + Cc1nc(Nc2ncc(C(=O)Nc3c(C)cccc3Cl)s2)cc(N2CCN(CCO)CC2)n1 [Dasatinib] (partner 0.075 µM)
In short: as §1

[2] = compound: O=c1[nH]cc(F)c(=O)[nH]1 [5-Fluorouracil] + Nc1ncn([C@H]2C[C@H](O)[C@@H](CO)O2)c(=O)n1 [Decitabine] (partner 2 µM)
In short: as §1

[3] = compound: CN[C@@H]1C[C@H]2O[C@@](C)([C@@H]1OC)n1c3ccccc3c3c4c(c5c6ccccc6n2c5c31)C(=O)NC4 [Staurosporine] + N=C(N)NC(=N)NCCc1ccccc1 [Phenformin] (partner 250 µM)
In short: as §1

Cell Line	relative viability (Staurosporine + AZD7762; first compound 0.005 µM)	relative viability (Staurosporine + AZD7762; first compound 0.01581 µM)	relative viability (Staurosporine + AZD7762; first compound 0.05 µM)	relative viability (Staurosporine + AZD7762; first compound 0.1581 µM)	relative viability (Staurosporine + AZD7762; first compound 0.5 µM)	relative viability ([1]; first compound 0.005 µM)	relative viability ([1]; first compound 0.01581 µM)	relative viability ([1]; first compound 0.05 µM)	relative viability ([1]; first compound 0.1581 µM)	relative viability ([1]; first compound 0.5 µM)	relative viability ([2]; first compound 0.02 µM)	relative viability ([2]; first compound 0.2 µM)	relative viability ([2]; first compound 0.6325 µM)	relative viability ([2]; first compound 2 µM)	relative viability ([3]; first compound 0.01581 µM)	relative viability ([3]; first compound 0.1581 µM)	relative viability ([3]; first compound 0.5 µM)	relative viability ([3]; first compound 0.005 µM)	relative viability ([3]; first compound 0.05 µM)
NCI-H322M	0.552	0.456	0.527	0.393	0.425	0.365	0.401	0.324	0.277	0.273	0.638	0.616	0.774	0.676	0.348	0.289	0.248	–	–
NCI-H358	0.339	0.378	0.253	0.195	0.172	0.373	0.072	0.178	0.0752	0.0597	0.187	0.224	0.214	0.225	0.0847	0.0499	0.0405	0.337	0.0848
NCI-H441	0.86	0.538	0.315	0.293	0.165	0.705	0.326	0.572	0.163	0.082	0.252	0.226	0.254	0.26	0.259	0.202	0.102	0.817	0.246
NCI-H460	0.656	0.532	0.741	0.0465	0.0251	0.575	0.27	0.375	0.0523	0.009	0.484	0.38	0.111	0.0586	0.0818	0.0104	0.0069	0.301	0.071
NCI-H522	0.953	0.866	0.715	0.639	0.404	1.08	–	0.743	0.497	0.527	0.642	0.58	0.622	0.722	–	0.41	0.405	0.783	0.594
NCI-H596	1.08	0.769	0.471	0.28	0.303	0.7	0.467	0.276	0.226	0.183	1.15	0.999	0.902	0.706	0.323	0.249	0.194	0.797	0.383
NCI-H647	0.296	0.102	0.121	0.0587	0.05	0.0983	0.0707	0.0669	0.073	0.0532	0.367	0.383	0.39	0.391	0.0676	0.0492	0.0636	0.236	0.0846
NCI-H650	0.432	0.304	0.273	0.227	0.306	0.284	0.264	0.271	0.229	0.223	0.313	0.312	0.326	0.288	0.257	0.189	0.164	0.285	0.26
NCI-H727	0.622	0.412	0.55	0.466	0.461	0.47	0.579	0.363	0.235	0.184	0.844	0.996	0.822	0.844	0.319	0.219	0.146	0.404	0.379
NCI-H838	0.776	0.644	0.643	0.693	0.675	0.267	0.203	0.225	0.177	0.178	0.48	0.447	0.359	0.291	0.139	0.125	0.0931	0.208	0.136
NCI-H1355	0.713	0.294	0.237	0.214	0.148	0.516	0.166	0.202	0.164	0.152	0.332	0.332	0.26	0.245	0.165	0.168	0.162	0.369	0.255
NCI-H1395	0.38	0.305	0.34	0.303	0.302	0.377	0.306	0.383	0.299	0.247	0.802	0.781	0.771	0.736	0.292	0.301	0.241	0.462	0.382
NCI-H1437	1.02	0.686	0.78	0.574	0.219	0.391	0.208	0.285	0.173	0.134	0.522	0.308	0.28	0.237	–	0.11	0.118	0.247	0.187
NCI-H1651	0.522	0.352	0.295	0.219	0.195	0.335	0.211	0.239	0.107	0.0833	0.598	0.613	0.321	0.264	0.155	0.0842	0.0807	0.293	0.16
NCI-H1666	0.701	0.51	0.524	0.404	0.32	0.602	0.419	0.484	0.261	0.196	0.706	0.564	0.534	0.502	0.567	0.262	0.201	0.495	0.518
NCI-H1734	0.539	0.242	0.194	0.0987	0.0915	0.309	–	0.136	0.1	0.116	0.536	0.518	0.499	0.396	0.179	0.116	0.107	0.348	0.153
NCI-H1755	0.318	0.228	0.214	0.224	0.224	0.229	0.206	0.149	–	0.169	0.747	0.616	0.433	0.394	0.24	0.195	0.161	0.384	0.196
NCI-H1792	0.227	0.0748	0.0605	0.0466	0.0293	0.897	0.639	0.451	0.359	0.289	0.514	0.473	0.27	0.202	0.0732	0.0859	0.0427	0.255	0.0598

Cell Line	relative viability (Staurosporine + AZD7762; first compound 0.005 µM)	relative viability (Staurosporine + AZD7762; first compound 0.01581 µM)	relative viability (Staurosporine + AZD7762; first compound 0.05 µM)	relative viability (Staurosporine + AZD7762; first compound 0.1581 µM)	relative viability (Staurosporine + AZD7762; first compound 0.5 µM)	relative viability ([1]; first compound 0.005 µM)	relative viability ([1]; first compound 0.01581 µM)	relative viability ([1]; first compound 0.05 µM)	relative viability ([1]; first compound 0.1581 µM)	relative viability ([1]; first compound 0.5 µM)	relative viability ([2]; first compound 0.02 µM)	relative viability ([2]; first compound 0.2 µM)	relative viability ([2]; first compound 0.6325 µM)	relative viability ([2]; first compound 2 µM)	relative viability ([3]; first compound 0.01581 µM)	relative viability ([3]; first compound 0.1581 µM)	relative viability ([3]; first compound 0.5 µM)	relative viability ([3]; first compound 0.005 µM)	relative viability ([3]; first compound 0.05 µM)
NCI-H1793	0.352	–	0.143	0.186	0.145	0.457	–	0.302	0.141	0.144	0.617	0.469	0.487	0.557	–	–	0.129	0.453	0.357
NCI-H1915	0.707	0.495	0.346	0.21	0.09	0.212	0.0927	0.204	0.0847	0.0869	0.248	0.272	0.278	0.256	0.087	0.0813	0.0841	0.332	0.181
NCI-H1944	0.349	0.25	0.275	0.177	0.192	0.212	0.271	0.203	0.172	0.134	0.472	0.399	0.268	0.183	0.11	0.102	0.0775	0.19	0.141
NCI-H1975	0.536	0.402	0.357	0.261	0.182	0.29	0.177	0.152	0.1	0.0812	0.449	0.381	0.28	0.206	0.135	0.103	0.0912	0.208	0.136
NCI-H1993	0.676	0.39	0.407	0.331	0.296	0.646	0.454	0.54	0.488	0.509	0.692	0.595	0.541	0.46	0.408	0.455	0.421	0.507	0.463
NCI-H2085	0.751	0.42	0.47	0.245	0.276	0.244	0.257	0.271	0.235	0.242	0.516	0.567	0.657	0.526	0.197	0.151	0.174	–	0.312
NCI-H2087	1.3	–	0.681	0.207	0.0787	0.701	0.431	0.311	0.0727	0.0691	0.244	0.295	0.271	0.224	0.214	0.0795	0.0731	0.364	0.14
NCI-H2126	0.914	0.622	0.673	0.268	0.27	0.501	0.275	0.301	0.257	0.222	0.518	0.306	0.28	0.258	0.245	0.237	0.245	0.483	0.336
NCI-H2170	1.05	–	0.43	0.0989	0.15	0.91	–	0.648	0.106	0.117	0.501	0.451	0.439	0.328	–	0.14	0.157	0.364	0.354
NCI-H2342	0.642	0.412	0.373	0.335	0.328	0.297	0.243	0.26	0.234	0.27	0.726	0.682	0.698	0.739	–	0.301	0.281	0.686	0.427
NCI-H2347	0.459	0.264	0.374	–	0.224	0.226	0.212	0.19	0.233	0.232	0.587	0.618	0.441	0.407	0.253	0.216	0.165	0.269	0.201
NCI-H2405	0.239	0.141	0.112	–	0.0865	0.111	0.11	0.114	0.0659	0.0751	0.734	0.741	0.738	0.661	0.162	0.0864	0.0856	0.326	0.117
NCI-H3122	–	–	0.678	–	0.192	0.861	–	0.756	0.232	0.0614	0.432	0.447	0.304	0.214	–	0.12	0.0915	0.283	0.335
PC-3 [JPC-3]	0.829	0.472	0.357	0.327	0.332	–	0.424	0.375	0.235	0.204	0.851	0.873	0.779	0.75	0.394	0.247	0.181	–	0.352
PC-14	0.302	0.0766	0.0421	0.0892	0.0415	0.0423	0.0358	0.0229	0.0364	0.0239	0.265	0.229	0.25	0.275	0.129	0.0651	0.0636	0.26	0.0894
RERF-LC-KJ	1.07	0.804	0.436	0.24	0.177	0.416	0.364	0.223	0.192	0.201	0.66	0.762	0.776	0.736	0.269	0.241	0.229	0.209	0.225
SW 900	0.413	0.337	0.31	0.157	0.151	0.473	0.185	0.21	0.191	0.158	0.415	0.362	0.407	0.431	0.184	0.111	0.127	0.364	0.189
